Experimental findings from patent US9108958B2, “Selective CCR2 antagonists” (Boehringer Ingelheim International GmbH, priority 2011, dated 2015) are described below.

The target in one assay is T1, CCR2 (Homo sapiens, UniProt P41597).
T1 construct: Membranes were prepared from THP-1 cells; endogenous in cells; host or cells: THP-1 (human acute monocytic leukaemia cells), membrane preparation
T1 sequence (P41597 1-360 isoform P41597-2): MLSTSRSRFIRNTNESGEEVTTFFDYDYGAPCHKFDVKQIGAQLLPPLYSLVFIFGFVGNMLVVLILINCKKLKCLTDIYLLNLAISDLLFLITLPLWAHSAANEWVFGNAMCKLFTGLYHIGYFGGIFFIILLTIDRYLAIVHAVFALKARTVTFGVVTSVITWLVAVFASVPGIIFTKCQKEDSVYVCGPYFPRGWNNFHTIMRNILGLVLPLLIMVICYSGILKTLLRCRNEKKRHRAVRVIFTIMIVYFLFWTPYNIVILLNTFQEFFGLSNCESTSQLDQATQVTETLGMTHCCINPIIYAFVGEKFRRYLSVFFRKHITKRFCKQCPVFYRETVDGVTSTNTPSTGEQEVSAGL
Kind of assay: CCR2 receptor membrane binding assay ([125I]MCP-1, THP-1 cell membranes, SPA beads). Particulars: THP-1 membranes, [125I]MCP-1, bound radioactivity after 8 h; read-out: hKi [nM](CCR2). How it is done:
The above exemplary substances have been tested for binding to CCR2 using a binding assay as outlined herein below:
THP-1 cells (human acute monocytic leukaemia cells) were cultured under standardized conditions at 37° C. and 5% CO2 in a humidified incubator. THP-1 cells were cultivated in RPMI 1640 medium (Gibco 21875) containing 1% MEM-NEAA (Gibso 11140) 2 mM L-glutamine, 1.5 g/L sodium bicarbonate, 4.5 g/L glucose, 10 mM HEPES and 1.0 mM sodium pyruvate, 90%; 10% fetal calf serum (FCS Gibco 10500-064).
Membranes were prepared from THP-1 cells. THP-1 cells were centrifuged at 300×g at 4° C. for 10 min. The cell pellet was resuspendet in Phosphate Buffer Saline (PBS, including 10 μM Pefabloc and a protease inhibitor mix ‘complete’, Boehringer Mannheim (1 tablet/50 ml)), to a concentration of […]. The membrane preparation was performed by disrupting the cells by nitrogen […] (at 50 bar, for 1 h) in a “Nitrogen Bombe” (Parr Instrument). Cell debris was removed by centrifugation (800×g at 4° C., 1 min) The supernatant was centrifuged at 80000×g, 4° C. for 30 min to sediment the cell membranes. Usually 50 mg of protein (Bradford assay) were yielded from 1×10E9 cells. The membranes were resuspendet in 25 mM HEPES, 25 mM MgCl2, 1 mM CaCl2, 10% Glycerine for storage in aliquots at −80° C. in 25 mM HEPES, 25 mM MgCl2, 1 mM CaCl2, 10% Glycerine and stored at −80° C.
(§1) Receptor Membrane Binding Assay:
Perkin Elmer NEX 332 Jod^125 MCP-1, Stock: 2200 Ci/mmol solved in 2000 μl assay buffer, stored at −20° C. THP-1 membrane were adjusted with 25 mM HEPES, pH 7.2; 5 mM MgCl2; 0.5 mM CaCl2; 0.2% BSA assay buffer to a concentration of 2.5 μg/15 μl. Amersham Biosciences PVT-WGA Beads (RPNQ0001) were adjusted with assay buffer to a concentration of 0.24 mg/30 μl. For preparation of the membrane-bead-suspension membranes and beads were incubated for 30 min at RT under rotation (60 rpm) with a ratio of 1:2. Test compounds dissolved in 100% DMSO to a concentration of 10 mM and are further diluted with 100% DMSO to 1 mM. All additional compound dilutions were obtained with assay buffer, final 1% DMSO. Compounds, membrane-bead-suspension and [^125I]MCP-1 (ca. 25000 cpm/10 μl) were incubated. Bound radioactivity was determined by scintillation counter after 8 h. Determination of affinity of test compounds (dissociation constant hKi) is calculated by iterative fitting of experimental data using the “easy sys” program, which is based on law of mass action (Schittkowski K. (1994), Numerische Mathematik, Vol. 68, 129-142).

A further assay deals with T2, human CCR5 (Homo sapiens, UniProt P51681).
T2 construct: expressed in transfected cells; host or cells: CHO cells co-expressing Gα16, under puromycin and zeocin selection; membrane preparation
The assay can be described thus: CCR5 receptor membrane binding assay ([125I]RANTES, CHO (Gα16) human CCR5 cell membranes, SPA beads). The note with it: bound radioactivity after 6 h, read-out: hKi [nM] (CCR5). How it is done: The above exemplary substances have been tested for binding to CCR5 using a binding assay as outlined herein below:
CHO, (Gα16) human CCR5 cells were cultured under standardized conditions at 37° C. and 5% CO2 in a humidified incubator. CHO (Gα16) human CCR5 cells were cultivated in Ham's F12 (Invitrogen; #31765068) supplemented with 10 μg/ml Puromycin (Invitrogen; #A11139-03), 200 μg/ml Zeocin (Invitrogen; #45-0003) and 10% FCS (Gibco; #10500-064).
Membranes were prepared from CHO (Gα16) human CCR5 cells. Cells were cultured on […] plates (Nunc; #166508) 2-3 days before membrane preparation (usually 80-100 plates to obtain 80 mg protein).
Cells were scraped off the plates with a big scraper and washed with 2×5 ml ice cold Phosphate Buffer Saline (PBS; Invitrogen; #14040-174). Cell suspension was collected in a glass bottle (on ice). Cell suspension was harvested at 1400 rpm and 4° C. for 10 min and washed in PBS. Cell pellet was resuspended in 40 ml PBS with protease inhibitor mix ‘complete’ (Roche; #11873580001; 1 tablet/50 ml).
For gentle cell disruption the membrane preparation was performed by using a homogenizer (potter). Cells were homogenized for 5-10 min.
Membranes were centrifuged at 1000 rpm and 4° C. for 5 min Supernatant (=membrane) was harvested in a new falcon tube and remaining cell pellet homogenized again for 5-10 min with PBS with protease inhibitor mix and centrifuged. Collected supernatant was centrifuged at 40000 rpm and 4° C. for 30 min to sediment the cell membranes.
The membranes were resuspended in 25 mM HEPES, 25 mM MgCl2, 1 mM CaCl2, 10% Glycerine for storage in aliquots at −80° C. Membranes were diluted to a concentration of 5 mg/ml (Bradford Assay).
as §1
[^125I]RANTES, Stock: 1825 Ci/mmol, 25 μCi (Bio Trend #A3-AI-676) was solved in 1000 μl assay buffer (100 mM NaCl; 10 mM MgCl2; 50 mM Tris-HCl; 1 mM EDTA; 0.1% BSA, pH 7.6), stored at −20° C.
CHO (Gα16) human CCR5 membrane were solved on ice and adjusted with assay buffer to a concentration of 2.5 μg/15 μl.
Amersham Biosciences PVT-WGA Beads (GE Healthcare; #RPNQ0001) were adjusted with assay buffer to a concentration of 8 mg/ml. For preparation of the membrane-bead-suspension, membranes and beads were incubated for 30 min at RT under rotation with a ratio of 1:2.
Test compounds dissolved in 100% DMSO to a concentration of 10 mM and are further diluted with 100% DMSO to 1 mM. All additional compound dilutions were obtained with assay buffer, final 1% DMSO. 7 μl compound dilution, 45 μl membrane-bead-suspension and 10 μl [^125I]RANTES (ca. 20000 cpm/10 μl) were incubated at RT. Bound radioactivity was determined by scintillation counter after 6 h. Determination of affinity of test compounds (dissociation constant Ki) is calculated by iterative fitting of experimental data using the “easy sys” program, which is based on law of mass action (Schittkowski K. (1994), Numerische Mathematik, Vol. 68, 129-142).

T2 sequence (P51681 whole entry): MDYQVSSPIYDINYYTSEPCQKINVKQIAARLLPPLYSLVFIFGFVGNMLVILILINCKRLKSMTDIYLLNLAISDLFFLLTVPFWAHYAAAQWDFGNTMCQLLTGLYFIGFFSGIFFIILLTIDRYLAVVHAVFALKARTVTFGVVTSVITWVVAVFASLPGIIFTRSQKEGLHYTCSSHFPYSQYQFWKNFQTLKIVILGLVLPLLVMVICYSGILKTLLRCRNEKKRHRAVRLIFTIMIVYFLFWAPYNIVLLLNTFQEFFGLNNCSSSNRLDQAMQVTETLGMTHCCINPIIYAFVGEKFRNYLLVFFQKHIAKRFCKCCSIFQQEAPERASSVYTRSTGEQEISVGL

For `CO[C@@H]1COCC[C@@H]1NC1CCN(C(=O)c2nc(C3CCOCC3)nc(N3CCc4cc(C(F)(F)F)ccc4C3)c2C)CC1` [Example 4], the Ki on CCR2 is 2 nM; at human CCR5 it was 310 nM.
With `CO[C@@H]1COCC[C@@H]1NC1CCN(C(=O)c2cc(NC[C@H]3CCC[C@@H](c4ccc(SC)cc4)O3)nc(CF)n2)CC1` [Example 39], the Ki on CCR2 was determined as 4 nM.
As to `CO[C@H]1COCC[C@H]1NC1CCN(C(=O)c2nc(C(F)F)nc(N3CCc4ccc(C(F)(F)F)cc4C3)c2C)CC1` [Example 34], the values for the Ki on CCR2 and on human CCR5 were 4 nM and 190 nM, respectively.
For the molecule `CO[C@H]1COCC[C@H]1NC1CCN(C(=O)c2cc(NC[C@H]3CCC[C@@H](c4ccc(SC)cc4)O3)nc(CF)n2)CC1` [Example 41], the Ki at CCR2 was determined as 2 nM.
Still for that read-out and setting: to `Cc1c(Nc2ccc(Cl)c(Cl)c2)nc(CF)nc1C(=O)N1CCC(N2CCC(N(C)S(C)(=O)=O)CC2)CC1` [Example 36] belongs 2 nM.
As for `Cc1c(C(=O)N2CCC(N[C@H]3CCOC[C@H]3F)CC2)nc(C2CCOCC2)nc1N1CCc2ccc(C(F)(F)F)cc2C1` [Example 13], the Ki on CCR2 amounted to 5 nM; at human CCR5, 1300 nM.
The matching figures for `CSc1ccc([C@@H]2CCC[C@H](CNc3cc(C(=O)N4CCC(NC5CCOCC5F)CC4)nc(CF)n3)O2)cc1` (some centres unmarked) [Example 40]: 7 nM and 230 nM.
On to `CC(=O)N1CCC(c2nc(Nc3ccc(Cl)c(Cl)c3)c(C)c(C(=O)N3CCC(N[C@H]4CCOC[C@H]4F)CC3)n2)CC1` [Example 43], for which the Ki on CCR2 is 19 nM.
For the molecule `Cc1c(C(=O)N2CCC(N[C@@H]3CCOC[C@@H]3F)CC2)nc(C2CCOCC2)nc1N1CCc2cc(C(F)(F)F)ccc2C1` [Example 8], the Ki at CCR2 was 11 nM; on human CCR5, 5870 nM.
The matching figures for `CO[C@H]1COCC[C@H]1NC1CCN(C(=O)c2nc(-c3cc(C)on3)nc(N3CCc4cc(C(F)(F)F)ccc4C3)c2C)CC1` [Example 10]: 15 nM and 850 nM.
In the case of `CO[C@@H]1COCC[C@@H]1NC1CCN(C(=O)c2nc(C(F)F)nc(N3CCc4ccc(C(F)(F)F)cc4C3)c2C)CC1` [Example 35], the Ki at CCR2 came to 2 nM; at human CCR5, 160 nM.
The matching figures for `Cc1c(NC[C@H]2CCC[C@@H](c3ccc(C(F)(F)F)cc3)O2)nc(C2CCOCC2)nc1C(=O)N1CCC(N[C@@H]2CCOC[C@@H]2F)CC1` [Example 15]: 3 nM and 270 nM.
The matching figures for `CO[C@H]1COCC[C@H]1NC1CCN(C(=O)c2nc(C(F)(F)F)nc(N3CCc4ccc(C(F)(F)F)cc4C3)c2C)CC1` [Example 1]: 3 nM and 265 nM.
`Cc1cc(-c2nc(NC[C@H]3CCC[C@@H](c4ccc(C(F)(F)F)cc4)O3)c(C)c(C(=O)N3CCC(N[C@H]4CCOC[C@H]4F)CC3)n2)no1` [Example 23]: the Ki at CCR2 worked out at 1 nM.
Same read-out and setting: to `CO[C@@H]1COCC[C@@H]1NC1CCN(C(=O)c2cc(NC[C@H]3CCC[C@@H](c4ccc(C)cc4)O3)nc(CF)n2)CC1` [Example 30] belongs 3 nM.
In the case of `CO[C@@H]1COCC[C@@H]1NC1CCN(C(=O)c2nc(CF)nc(N3CCc4ccc(C(F)(F)F)cc4C3)c2C)CC1` [Example 17], the Ki was determined as 2 nM on CCR2 and 180 nM at human CCR5.
The matching figures for `Cc1cc(-c2nc(C(=O)N3CCC(N[C@H]4CCOC[C@H]4F)CC3)c(C)c(N3CCc4ccc(C(F)(F)F)cc4C3)n2)no1` [Example 27]: 15 nM and 750 nM.
On to `CO[C@@H]1COCC[C@@H]1NC1CCN(C(=O)c2nc(-c3cc(C)on3)nc(NC[C@H]3CCC[C@@H](c4ccc(C(F)(F)F)cc4)O3)c2C)CC1` [Example 22], for which, on CCR2, the Ki came to 0.7 nM.
Take `CO[C@H]1COCC[C@H]1NC1CCN(C(=O)c2nc(C3CCOCC3)nc(N3CCc4ccc(C(F)(F)F)cc4C3)c2C)CC1` [Example 11]: the Ki at CCR2 was 0.8 nM; on human CCR5, 430 nM.
Turning to `Cc1ccc([C@@H]2CCC[C@H](CNc3cc(C(=O)N4CCC(NC5CCOCC5F)CC4)nc(CF)n3)O2)cc1` (some centres unmarked) [Example 31], the Ki at CCR2 is 15 nM.
On to `CO[C@H]1COCC[C@H]1NC1CCN(C(=O)c2nc(-c3cc(C)on3)nc(NC[C@H]3CCC[C@@H](c4ccc(C(F)(F)F)cc4)O3)c2C)CC1` [Example 25], for which the Ki at CCR2 was 1 nM.
Same read-out and setting: the value for `CO[C@H]1COCC[C@H]1NC1CCN(C(=O)c2cc(NC[C@H]3CCC[C@@H](c4ccc(C)cc4)O3)nc(CF)n2)CC1` [Example 32] was 5 nM; that for `Cc1c(C(=O)N2CCC(NC3CCOCC3)CC2)nc(C(F)(F)F)nc1N1CCc2ccc(C(F)(F)F)cc2C1` [Example 33] was 7 nM; that for `CC(=O)N1CCC(c2nc(Nc3ccc(Cl)c(Cl)c3)c(C)c(C(=O)N3CCC(N[C@@H]4CCOC[C@@H]4F)CC3)n2)CC1` [Example 42] was 17 nM.
Same read-out and setting: to `CO[C@@H]1COCC[C@@H]1NC1CCN(C(=O)c2nc(C3CCN(C(C)=O)CC3)nc(Nc3ccc(Cl)c(Cl)c3)c2C)CC1` [Example 44] belongs 4 nM.
On the same count and under the same terms, the value for `Cc1c(Nc2ccc(Cl)c(Cl)c2)nc(CF)nc1C(=O)N1CCC(N2CCOCC2)CC1` [Example 38] was 37 nM.
